Earlier results, collected in patent US20170101624A1, “METHODS OF ENHANCING T-CELL LONGEVITY AND USES THEREOF” (Washington University, priority 2015, published 2017).

System: Drp1 (Dnm1)
Settings: as disclosed in Cassidy-Stone et al. Developmental Cell 2008

Compound: COc1cc(-n2c(=S)[nH]c3ccccc3c2=O)c(Cl)cc1Cl [compound A]
- efficacy relative to Mdivi-1 (inhibition of mitochondrial fission): full efficacy
